# Measurements published in US9675625B2, “Medicament comprising recombinant antibody against chemokine receptor CCR4” (KYOWA HAKKO KIRIN CO., LTD., priority 2003, dated 2017).
# “And” between values parts separate entries of the source, which are not always exact repeats. Identical values can stand only once.
# How the values were obtained:
# CCRF-CEM cells [1] = assay: antitumor effect of KM 2760 and etoposide in combination, CCRF-CEM cells grafted in nude mouse; type: in vivo, Balb/c nude mouse; conditions: Day 7; KM 2760 800 μg per mouse Day 0 and Day 4; VP-16 10 mg/kg Day 0 to Day 4; tail vein
# Description: (§1) CCRF-CEM cells (human T cell leukemia cell line) were suspended in RPMI 1640 medium (Gibco BRL) at a concentration of 2×10^8 cells/mL, and 100 μL of the suspension was grafted into the ventral skin of Balb/c nude mice (Nippon Crea, male). On Day 17 after the cell grafting, a diameter of a tumor was measured with calipers, and a tumor volume was calculated using formula 2 in Example 2.
# Individuals having the tumor volume within the range of from 121 to 348 mm^3 (on average 195 mm^3) were selected, and grouped such that the average tumor volume to be almost the same. Each of the following agents A to D was then administered to the mice. Incidentally, the grouping day was defined as Day 0.
# (§2) B. Group of administering KM 2760 alone: 800 μg of KM2760 was administered per mouse on Day 0 and Day 4.
# C. Group of administering etoposide (hereinafter referred to as VP-16; Lastet injection, Nippon Kayaku Co., Ltd.) alone: 10 mg/kg of VP-16 was administered per mouse for 5 days from Day 0 to Day 4. […]
# The experiment was conducted with groups each consisting of five mice. […] On Day 7, the tumor volume was measured. The antitumor effect was evaluated by comparing average values of a tumor volume change (V/V0) on Day 7 when the tumor volume on Day 0 in each group was defined as V0.
# CCR4/EL4 cells [2] = assay: antitumor effect of KM 2760 and IFN-α in combination, CCR4/EL4 cells grafted into tail vein of C57BL/6 mice, liver weight ratio; type: in vivo, C57BL/6 mouse
# Description: CCR4/EL4 cells were suspended in RPMI 1640 medium (manufactured by Gibco BRL) at a concentration of 5×10^5 cells/mL, and 100 μl of the suspension was grafted into the tail vein of C57BL/6 mice (CLEA Japan Inc., male, 8 weeks old). Further, mice were grouped into A to D, and each of the agents A to D were administered to the mice. Incidentally, the day on which the tumor was grafted was defined as Day 0.
# B. Group of administering IFN-α alone: 5×10^4 units of IFN-α (Universal type I interferon, manufactured by PBL Biomedical Laboratories) was intravenously administered per mouse once a day for 5 days from Day 1 to Day 5.
# The experiment was conducted with group A consisting of 7 mice and groups B, C and D each consisting of 6 mice. […] The weight of all mice was measured on Day 14. After etherization and exsanguination, mice were brought to euthanasia by dislocation of the cervical spine. The liver was extracted, and the weight of the liver was then measured. A ratio of the liver weight to the weight of each individual (hereinafter referred to as a weight ration of a liver) was calculated by percentage.
# The antitumor effect was evaluated by comparing the liver weight ratio (average value of six mice) of untreated healthy mice measured simultaneously and the liver weight ratio of each group increased by metastasis of tumor cells.
# Further, the residual amount of tumor cells in the liver in each group was calculated as a T/C value using the following formula. T/C=(average values of a weight ration of a liver of each group−average value of a weight ration of a liver of an untreated mouse)/(average value of a weight ration of a liver of a negative control group−average value of a weight ration of a liver of an untreated mouse) (Formula 4)
# CCRF-CEM cells [3] = assay: antitumor effect of KM 2760 and Methotrexate in combination, CCRF-CEM cells grafted in nude mouse; type: in vivo, Balb/c nude mouse; conditions: Day 7; KM 2760 800 μg per mouse Day 0 and Day 4; MTX 15 mg/kg Day 0 to Day 4; tail vein
# Description: as §1, with “(CLEA Japan Inc.” for “(Nippon Crea,”
# Individuals having the tumor volume within the range of 121 to 348 mm^3 (on average 195 mm^3) were selected, and grouped such that the average tumor volume to be almost the same. Each of the following agents A to D was administered to the mice. Incidentally, the grouping day was defined as Day 0.
# as §2
# C. Group of administering Methotrexate (hereinafter referred to as MTX; Methotrexate injection solution, Nippon Weisledary K.K.) alone: 15 mg/kg of MTX was administered per mouse for 5 days from Day 0 to Day 4. […]
# The experiment was conducted with groups each consisting of five mice. […] On Day 7, the tumor volume was measured. The antitumor effect was evaluated by comparing average values of a tumor volume change (V/V0) when the tumor volume on Day 0 in each group was defined as V0.
# CCRF-CEM cells [4] = assay: antitumor effect of KM 2760 and vincristine in combination, CCRF-CEM cells grafted in nude mouse; type: in vivo, Balb/c nude mouse; conditions: Day 10; KM 2760 800 μg per mouse Day 0 and Day 4; VCR 0.55 mg/kg Day 0; tail vein
# CCRF-CEM cells [5] = assay: antitumor effect of KM 2760 and cyclophosphamide in combination, CCRF-CEM cells grafted in nude mouse; type: in vivo, Balb/c nude mouse; conditions: Day 4; KM 2760 800 μg per mouse Day 0 and Day 4; CPA 65 mg/kg Day 0; tail vein
# Description: CCRF-CEM cells (human T cell leukemia cell line) were suspended in RPMI 1640 medium (Gibco BRL) at a concentration of 2×10^8 cells/mL, and 100 μL of the suspension was grafted intradermally in the right flank of Balb/c nude mice (Nippon Crea, male). On Day 18 after the cell grafting, a diameter of a tumor was measured with calipers, and a tumor volume was calculated using formula 2 in Example 2.
# Individuals having the tumor volume within the range of 116 to 349 mm^3 (on average 219 mm^3) were selected, and grouped such that the average tumor volume to be almost the same. Each of the following agent A to D was administered to the mice. Incidentally, the grouping day was defined as Day 0.
# The experiment was conducted with groups each consisting of five mice. Each of the agents was diluted with a physiological saline (Otsuka Seiyaku), and the diluent was administered from the tail vein. On Day 4, the tumor volume was measured. The antitumor effect was evaluated by comparing an average values of a tumor volume change (V/V0) on each measurement day when the tumor volume on Day 0 in each group was defined as V0.
# CCR4/EL4 cells [6] = test system: CCR4/EL4 cells
# Description: CCR4/EL4 cells (WO 01/64754) were suspended in RPMI 1640 medium (manufactured by Gibco BRL) at a concentration of 1×10^5 cells/mL, and 200 μL of the suspension was grafted into the peritoneal cavity of C57BL/6 mice (CLEA Japan Inc., male, 8 weeks old). After, mice was grouped into A to D, and each of the agents A to D was administered to each mouse. The day on which the tumor was grafted was defined as Day 0.
# B. Group of administering M-CSF alone: 100 μg of M-CSF (Leucoprol, manufactured by Kyowa Hakko Kogyo Co., Ltd.) was intraperitoneally administered per mouse twice a day from Day-3 to Day-1 and once a day on Day 0, seven times in total.
# The experiment was conducted with groups each consisting of 8 mice. […] The antitumor effect was evaluated by a ratio of average values of the number of survival days of mice in each group to an average value of the number of survival days of mice in the negative control group (hereinafter referred to as a life prolongation ratio).
# CCR4/EL4 cells [7] = assay: antitumor effect of KM 2760 and G-CSF in combination, CCR4/EL4 cells grafted into ventral skin of C57BL/6 mice; type: in vivo, C57BL/6 mouse
# Description: CCR4/EL4 cells (WO 01/64754) were suspended, in RPMI 1640 medium (Gibco BRL) at a concentration of 1×10^6 cells/mL, and 100 μL of the suspension was grafted into the right ventral skin of C57BL/6 mice (Nippon Crea, male, 8 weeks old). After, mice were grouped into A to D, each of the agents A to D were administered to each mouse. Incidentally, the day on which the tumor was grafted was defined as Day 0.
# B. Group of administering KM 2760 alone: 100 μg of KM2760 was intravenously administered per mouse on Day 0 and Day 4.
# C. Group of administering G-CSF alone: 10 μg of G-CSF (Neuup Injection 100, manufactured by Kyowa Hakko Kogyo Co., Ltd.) was subcutaneously administered per mouse once a day for 10 days from 4 days before the tumor grafting (hereinafter referred to as Day-4) to Day 5.
# The experiment was conducted with group A consisting of 10 mice and groups B, C and D each consisting of 7 mice. […] Each of the diluent was administered at 100 μL. A diameter of a tumor was measured with calipers chronologically from Day 0 of each group. A tumor volume was calculated using formula 2 in Example 2.
# Since the tumor death of the mouse was started in group A from Day 17 on, the evaluation of the tumor volume was finished on Day 14.
# The antitumor effect (T/C value) in each group was evaluated by calculation using the following formula 3 for comparison between the average value of the tumor volume in group A and the average values of the tumor volume in each group on the final evaluation day (Day 14). (T/C value)=(average value of tumor volume in each group on Day 14)/average value of tumor volume in group A on Day 14) (Formula 3)
# [8] = KM 2760 50 μg i.p. Day 0, M-CSF 100 μg i.p. seven times
molecule,measurement,setting,value
"COc1cc([C@@H]2c3cc4c(cc3[C@@H](O[C@@H]3O[C@@H]5CO[C@@H](C)O[C@H]5[C@H](O)[C@H]3O)[C@H]3COC(=O)[C@H]23)OCO4)cc(OC)c1O [VP-16, etoposide, reference compound]",T/C (V/V0 of group divided by V/V0 of negative control group),CCRF-CEM cells [1],0.71
IFN-α,"T/C value (residual amount of tumor cells in the liver, from liver weight ratio)","CCR4/EL4 cells [2]; Day 14, KM 2760 0.5 μg per mouse i.v. Day 1 and Day 5, IFN-α 5×10^4 units per mouse i.v. Day 1 to Day 5",0.48
same,antitumor effect compared to untreated group A (liver weight ratio),"CCR4/EL4 cells [2]; FIG. 7, Day 14",low
"CN(Cc1cnc2nc(N)nc(N)c2n1)c1ccc(C(=O)N[C@@H](CCC(=O)O)C(=O)O)cc1 [MTX, Methotrexate, reference compound]",T/C (V/V0 of group divided by V/V0 of negative control group),CCRF-CEM cells [3],0.06
"CC[C@]1(O)C[C@H]2CN(CCc3c([nH]c4ccccc34)[C@@](C(=O)OC)(c3cc4c(cc3OC)N(C=O)[C@H]3[C@@](O)(C(=O)OC)[C@H](OC(C)=O)[C@]5(CC)C=CCN6CC[C@]43[C@@H]65)C2)C1 [VCR, vincristine, reference compound]",T/C (V/V0 of group divided by V/V0 of negative control group),CCRF-CEM cells [4],0.49
"O=P1(N(CCCl)CCCl)NCCCO1 (stereo not drawn) [CPA, cyclophosphamide, reference compound]",T/C (V/V0 of group divided by V/V0 of negative control group),CCRF-CEM cells [5],0.48
"M-CSF: M-CSF (Leucoprol, manufactured by Kyowa Hakko Kogyo Co., Ltd.) (protein, UniProt P09603 33-554, looked up) Macrophage colony-stimulating …: EEVSEYCSHMIGSGHLQSLQRLIDSQMETSCQITFEFVDQEQLKDPVCYLKKAFLLVQDIMEDTMRFRDNTPNAIAIVQLQELSLRLKSCFTKDYEEHDKACVRTFYETPLQLLEKVKNVFNETKNLLDKDWNIFSKNCNNSFAECSSQDVVTKPDCNCLYPKAIPSSDPASVSPHQPLAPSMAPVAGLTWEDSEGTEGSSLLPGEQPLHTVDPGSAKQRPPRSTCQSFEPPETPVVKDSTIGGSPQPRPSVGAFNPGMEDILDSAMGTNWVPEEASGEASEIPVPQGTELSPSRPGGGSMQTEPARPSNFLSASSPLPASAKGQQPADVTGTALPRVGPVRPTGQDWNHTPQKTDHPSALLRDPPEPGSPRISSLRPQGLSNPSTLSAQPQLSRSHSSGSVLPLGELEGRRSTRDRRSPAEPEGGPASEGAARPLPRFNSVPLTDTGHERQSEGSFSPQLQESVFHLLVPSVILVLLAVGGLLFYRWRRRSHQEPQRADSPLEQPEGSPLTQDDRQVELPV",Number of survival days (each mouse),"CCR4/EL4 cells [6]; 8 mice per group, KM 2760 50 μg per mouse i.p. Day 0, M-CSF 100 μg per mouse i.p. seven times Day-3 to Day 0, observation to Day 50",17 days (2×) and 18 days (3×) and 19 days (2×) and 22 days
same,Average number of survival days,CCR4/EL4 cells [6]; [8],18.8 days
same,Life prolongation ratio (average survival days of group / negative control group),CCR4/EL4 cells [6]; [8],0.974
same,antitumor effect in comparison with untreated Group A (survival),CCR4/EL4 cells [6]; Table 7,no antitumor effect
"G-CSF: G-CSF (Neuup Injection 100, manufactured by Kyowa Hakko Kogyo Co., Ltd.) (protein, UniProt P09919 31-207, looked up, nartograstim) Granulocyte …: TPLGPASSLPQSFLLKCLEQVRKIQGDGAALQEKLVSECATYKLCHPEELVLLGHSLGIPWAPLSSCPSQALQLAGCLSQLHSGLFLYQGLLQALEGISPELGPTLDTLQLDVADFATTIWQQMEELGMAPALQPTQGAMPAFASAFQRRAGGVLVASHLQSFLEVSYRVLRHLAQP",T/C value (average tumor volume of group / group A),"CCR4/EL4 cells [7]; Day 14, KM 2760 100 μg per mouse i.v. Day 0 and Day 4, G-CSF 10 μg per mouse s.c. once a day Day-4 to Day 5",0.63
same,antitumor effect compared to untreated group A (tumor volume),"CCR4/EL4 cells [7]; FIG. 6, up to Day 14",low
